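Interpolation was linear, between the two tested concentrations surrounding the appropriate level; five concentrations were tested over 48 hours in 96-well plates. At the GI50, growth is halved. The concentration for full growth arrest is given as TGI.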
How the values were obtained:
Experiment in all cases: NCI anticancer screen, dose series, 48 h
IGROV1 ovarian = system: IGROV1 ovarian
RPMI-8226 leukemia = system: RPMI-8226 leukemia
HL-60(TB) leukemia = system: HL-60(TB) leukemia
COLO 205 colon = system: COLO 205 colon
HOP-62 NSCLC = system: HOP-62 NSCLC
HT29 colon = system: HT29 colon
NCI-H226 lung = system: NCI-H226 lung
MALME-3M melanoma = system: MALME-3M melanoma
U251 CNS = system: U251 CNS
OVCAR-5 ovarian = system: OVCAR-5 ovarian

SMILES	TGI (IGROV1 ovarian)	TGI (RPMI-8226 leukemia)	TGI (HL-60(TB) leukemia)	TGI (COLO 205 colon)	TGI (HOP-62 NSCLC)	TGI (HT29 colon)	TGI (NCI-H226 lung)	TGI (MALME-3M melanoma)	TGI (U251 CNS)	TGI (OVCAR-5 ovarian)	GI50 (IGROV1 ovarian)	GI50 (RPMI-8226 leukemia)	GI50 (HL-60(TB) leukemia)	GI50 (COLO 205 colon)	GI50 (HOP-62 NSCLC)	GI50 (HT29 colon)	GI50 (NCI-H226 lung)	GI50 (OVCAR-5 ovarian)	GI50 (MALME-3M melanoma)	GI50 (U251 CNS)
C=C(C)C1C/C=C(/C)CCCC2(CCC3=C(CC(C(=C)C)C/C=C(/C)CCC3)O2)C(=O)C1 (stereo not given)	> 100 µM	> 100 µM	> 100 µM	> 100 µM	> 100 µM	> 100 µM	> 100 µM	> 100 µM	> 100 µM	–	–	–	–	–	–	–	–	–	–	–
c1c[nH]c(CN2CCOCC2)n1	> 100 µM	> 100 µM	> 100 µM	> 100 µM	> 100 µM	> 100 µM	> 100 µM	> 100 µM	> 100 µM	> 100 µM	–	–	–	–	–	–	–	–	–	–
CC(C)(C)C(=O)[CH-]C(=O)C(C)(C)C.CC(C)(C)C(=O)[CH-]C(=O)C(C)(C)C.CN(C)c1ccc([O-])cc1.CN(C)c1ccc([O-])cc1.[Ti+4]	> 100 µM	> 100 µM	> 100 µM	> 100 µM	> 100 µM	> 100 µM	> 100 µM	> 100 µM	> 100 µM	> 100 µM	> 100 µM	52.7 µM	> 100 µM	> 100 µM	> 100 µM	> 100 µM	> 100 µM	> 100 µM	> 100 µM	43.1 µM
C=C1C(O)CC[C@]2(C)C1C1OC(C)(C)O[C@]13CC(=O)C(C)=C([C@H]1OC(C)(C)OC12)C3(C)C (stereo not given in full)	> 100 µM	> 100 µM	> 100 µM	> 100 µM	> 100 µM	> 100 µM	> 100 µM	> 100 µM	> 100 µM	> 100 µM	–	–	–	–	–	–	–	–	–	–
O=C(O)[C@@H](Cc1ccc2ccccc2c1)NC(=O)n1c2ccccc2c2ccccc21	80.7 µM	31.7 µM	18.3 µM	5.29 µM	15.3 µM	8.33 µM	9.32 µM	31.5 µM	21.2 µM	> 100 µM	4.06 µM	3.83 µM	3.3 µM	2.55 µM	3.21 µM	3.08 µM	2.1 µM	5.05 µM	4.25 µM	2.89 µM
CCOC(=O)C1SC(=Nc2ccc(Cl)cc2)N=C1C (stereo not given)	40 µM	82.3 µM	55.9 µM	32.8 µM	36.2 µM	30.8 µM	41.9 µM	35.9 µM	35.2 µM	39.3 µM	–	–	–	–	–	–	–	–	–	–
O=C(N/N=C/c1ccccc1O)c1ccccc1	> 100 µM	8.52 µM	8.05 µM	> 100 µM	8.61 µM	> 100 µM	17.4 µM	46.7 µM	> 100 µM	> 100 µM	1.84 µM	0.583 µM	2.32 µM	0.75 µM	1.61 µM	3.43 µM	1.94 µM	2.5 µM	4.26 µM	1.94 µM
CCCCN(CCCC)C(=O)/C(CC(=O)c1cccc2ccccc12)=N\NC(=O)c1cc2ccccc2cc1O	71.3 µM	21.5 µM	16.5 µM	56.3 µM	39.9 µM	57.7 µM	44.7 µM	35.4 µM	72.3 µM	80.5 µM	–	–	–	–	–	–	–	–	–	–
O=c1c(F)cn(Cc2ccccc2CCl)c(=O)n1Cc1ccccc1CCl	2.99 µM	8.46 µM	3.63 µM	3.52 µM	4.84 µM	4.71 µM	2.71 µM	4.59 µM	3.49 µM	11 µM	1.33 µM	0.795 µM	1.51 µM	1.7 µM	2.35 µM	2.01 µM	0.539 µM	5.07 µM	2.2 µM	1.55 µM
COc1cc(NCCCCCCCNC(C)C)c2nccc(C)c2c1	34.5 µM	20.4 µM	23.9 µM	6.54 µM	27.6 µM	16.4 µM	34.3 µM	34.8 µM	24.2 µM	29.7 µM	13.3 µM	4.79 µM	6.94 µM	2.34 µM	13.8 µM	4.29 µM	14.6 µM	15.4 µM	17.3 µM	11 µM
COC(=O)C1(O)CC(=O)CCC1c1ccc(OC)cc1 (stereo not given)	> 100 µM	> 100 µM	> 100 µM	> 100 µM	> 100 µM	> 100 µM	> 100 µM	> 100 µM	> 100 µM	> 100 µM	–	–	–	–	–	–	–	–	–	–
O=C(N/N=C/c1cccc(F)c1)c1ccncc1	–	> 100 µM	> 100 µM	> 100 µM	> 100 µM	> 100 µM	3.78 µM	> 100 µM	> 100 µM	–	–	–	–	–	–	–	–	–	–	–
c1ccc2[nH]c(-c3ccc(Nc4nc(N5CCCCC5)nc(N5CCOCC5)n4)cc3)nc2c1	–	6.58 µM	5.8 µM	3.92 µM	4.32 µM	5.56 µM	17.7 µM	3.57 µM	10 µM	29.3 µM	–	2.23 µM	2.42 µM	1.86 µM	1.92 µM	2.44 µM	3.2 µM	4.06 µM	1.87 µM	2.18 µM
CC(NC(=O)N(C)C)NC(=O)N(C)C	> 10 µM	> 10 µM	> 10 µM	> 10 µM	> 10 µM	> 10 µM	> 10 µM	> 10 µM	> 10 µM	–	–	–	–	–	–	–	–	–	–	–
CCOC(=O)C(NC(=O)c1nc[nH]c1[N+](=O)[O-])C(C)C (stereo not given)	> 100 µM	> 100 µM	> 100 µM	> 100 µM	> 100 µM	> 100 µM	> 100 µM	> 100 µM	> 100 µM	–	–	–	–	–	–	–	–	–	–	–
CC(=O)N1CCC2(c3ccccc3N(C(C)=O)C2c2ccc(O)cc2)C1C(=O)O (stereo not given)	–	> 100 µM	> 100 µM	> 100 µM	> 100 µM	> 100 µM	> 100 µM	> 100 µM	> 100 µM	> 100 µM	–	–	–	–	–	–	–	–	–	–
COCCOCCOC1=CC(=O)c2c(O)ccc(O)c2C1=O	3.21 µM	4.26 µM	2.52 µM	0.883 µM	3.44 µM	1.79 µM	3.88 µM	0.399 µM	–	–	–	–	–	–	–	–	–	–	–	–

Source: PubChem BioAssay (NCI)
